*1 amine or outer side, *2 acyl side, *3 side chain or, on linkers, in order; H or OH if unused. Where a SMILES comes first, the peptide text is derived from it. [ ]: non-standard residue; d: D form. X1 = O=C([C@@H]1C[C@H](n2cc([C]34[CH]5[CH]6[CH]7[CH]3[Fe]6754389%10[CH]4[CH]3[CH]8[CH]9[CH]4%10)nn2)CN1[*:1])[*:2]; Cit = NC(=O)NCCC[C@H](N)C(=O)O
Target: T1, HIV-1 YU2 gp120 (Human immunodeficiency virus type 1 group M subtype B, UniProt P35961)
T1 construct: made in house; host or cells: Drosophila S2 cells
Format: binding
Conditions: for dissociation rate constant (koff): Table 11, dissociation rate; for Ka: Table 11, association rate
Method: Surface plasmon resonance (SPR) interaction analyses were performed on a Biacore® 3000 optical biosensor (GE). All experiments were carried out at 25° C. using standard PBS, pH 7.4, with 0.005% Surfactant P20.
Regeneration of the surface was achieved by a one 5-second pulse of 10 mM glycine, pH 1.5.
SPR data analyses were performed using BIAEvaluation 4.0 software (GE). […] Experimental data were fitted to a simple 1:1 binding model with a parameter included for mass transport. […] The inhibition curve was converted into a calibration curve by the use of a fitting function. The fitting was done using the 4-parameter equation in BIAevaluation software: […]

Compound	dissociation rate constant (koff)	Ka
CC[C@H](C)[C@H](NC(=O)[C@@H](N)CCCNC(=N)N)C(=O)N[C@@H](CC(N)=O)C(=O)N[C@@H](CC(N)=O)C(=O)N[C@H](C(=O)N1C[C@@H](n2cc([C]34[CH]5[CH]6[CH]7[CH]3[Fe]6754389%10[CH]4[CH]3[CH]8[CH]9[CH]4%10)nn2)C[C@H]1C(=O)N[C@@H](Cc1c[nH]c2ccccc12)C(=O)N[C@@H](CO)C(N)=O)[C@@H](C)CC (stereo partly shown) [UM11] (H-RINNI[X1]WS-NH2; N-terminus and C-terminus assumed)	2.1E−02 ± 0.6 1/S	–
CC[C@H](C)[C@H](NC(=O)[C@@H](N)CCCNC(=N)N)C(=O)N[C@@H](CC(N)=O)C(=O)N[C@@H](CC(N)=O)C(=O)N[C@H](C(=O)N1C[C@@H](n2cc([C]34[CH]5[CH]6[CH]7[CH]3[Fe]6754389%10[CH]4[CH]3[CH]8[CH]9[CH]4%10)nn2)C[C@H]1C(N)=O)[C@@H](C)CC (stereo partly shown) [UM16] (H-RINNI[X1]-NH2; N-terminus assumed)	Not detectable	Not detectable
CC[C@H](C)[C@H](N)C(=O)N[C@@H](CC(N)=O)C(=O)N[C@@H](CC(N)=O)C(=O)N[C@H](C(=O)N1C[C@@H](n2cc([C]34[CH]5[CH]6[CH]7[CH]3[Fe]6754389%10[CH]4[CH]3[CH]8[CH]9[CH]4%10)nn2)C[C@H]1C(=O)N[C@@H](Cc1c[nH]c2ccccc12)C(=O)N[C@@H](CO)C(N)=O)[C@@H](C)CC (stereo partly shown) [UM21] (H-INNI[X1]WS-NH2; N-terminus and C-terminus assumed)	1.4E−03 ± 0.5 1/S	–
CC[C@H](C)[C@H](NC(=O)[C@H](CC(N)=O)NC(=O)[C@H](CC(N)=O)NC(=O)[C@@H](N)CCCNC(=N)N)C(=O)N1C[C@@H](n2cc([C]34[CH]5[CH]6[CH]7[CH]3[Fe]6754389%10[CH]4[CH]3[CH]8[CH]9[CH]4%10)nn2)C[C@H]1C(=O)N[C@@H](Cc1c[nH]c2ccccc12)C(=O)N[C@@H](CO)C(N)=O (stereo partly shown) [UM22] (H-RNNI[X1]WS-NH2; N-terminus and C-terminus assumed)	6.8E−03 ± 0.4 1/S	–
CC[C@H](C)[C@H](NC(=O)[C@H](CC(N)=O)NC(=O)[C@H](CC(N)=O)NC(=O)[C@@H](N)CCC(=O)O)C(=O)N1C[C@@H](n2cc([C]34[CH]5[CH]6[CH]7[CH]3[Fe]6754389%10[CH]4[CH]3[CH]8[CH]9[CH]4%10)nn2)C[C@H]1C(=O)N[C@@H](Cc1c[nH]c2ccccc12)C(=O)N[C@@H](CO)C(N)=O (stereo partly shown) [UM23] (H-ENNI[X1]WS-NH2; N-terminus and C-terminus assumed)	3.4E−03 ± 0.2 1/S	–
CC[C@H](C)[C@H](NC(=O)[C@H](CC(N)=O)NC(=O)[C@H](CC(N)=O)NC(=O)[C@@H](N)CCCNC(N)=O)C(=O)N1C[C@@H](n2cc([C]34[CH]5[CH]6[CH]7[CH]3[Fe]6754389%10[CH]4[CH]3[CH]8[CH]9[CH]4%10)nn2)C[C@H]1C(=O)N[C@H](Cc1c[nH]c2ccccc12)C(=O)N[C@@H](CO)C(N)=O (stereo partly shown) [UM24-DW] (H-[Cit]NNI[X1][dW]S-NH2; N-terminus assumed)	Not detectable	Not detectable
CC[C@H](C)[C@H](NC(=O)[C@H](CC(N)=O)NC(=O)[C@H](CC(N)=O)NC(=O)[C@@H](N)CCCCN)C(=O)N1C[C@@H](n2cc([C]34[CH]5[CH]6[CH]7[CH]3[Fe]6754389%10[CH]4[CH]3[CH]8[CH]9[CH]4%10)nn2)C[C@H]1C(=O)N[C@@H](Cc1c[nH]c2ccccc12)C(=O)N[C@@H](CO)C(N)=O (stereo partly shown) [UM27] (H-KNNI[X1]WS-NH2)	8.8E−03 ± 2.1 1/S	–
CC[C@H](C)[C@H](NC(=O)[C@H](CC(N)=O)NC(=O)[C@H](CC(N)=O)NC(=O)[C@@H](N)Cc1ccccc1)C(=O)N1C[C@@H](n2cc([C]34[CH]5[CH]6[CH]7[CH]3[Fe]6754389%10[CH]4[CH]3[CH]8[CH]9[CH]4%10)nn2)C[C@H]1C(=O)N[C@@H](Cc1c[nH]c2ccccc12)C(=O)N[C@@H](CO)C(N)=O (stereo partly shown) [UM28] (H-FNNI[X1]WS-NH2)	4.3E−03 ± 0.8 1/S	–
